In patent publication US9962402B2, “Healing composition for topical application” (BIOPASS S.A., priority 2011, dated 2018):
Entries after “also recorded” stand apart in the source; their conditions may differ.

System: wound healing
Experiment: Effect on wound healing (discovered in the context of the invention, no method given)
Type: in vivo
Details: present in a gel

CCOCCOCCO [ethoxydiglycol]
effect on wound healing: significantly slows wound healing; also recorded: significantly delays wound healing
